Active and inactive are the calls of the source. The rule behind the calls is not given here.
Key:
[1] = Cytotoxicity against human OVCAR4 cells assessed as growth inhibition at 10 uM; assay type: functional; conditions: OVCAR-4, read-out: GI
HT-29 = experiment: Cytotoxicity against human HT-29 cells assessed as growth inhibition at 10 uM; assay type: functional; conditions: read-out: GI
NCI-H23 = experiment: Cytotoxicity against human NCI-H23 cells assessed as growth inhibition at 10 uM; assay type: functional; conditions: read-out: GI
MDA-MB-435 = experiment: Cytotoxicity against human MDA-MB-435 cells assessed as growth inhibition at 10 uM; assay type: functional; conditions: read-out: GI
ACHN = experiment: Cytotoxicity against human ACHN cells assessed as growth inhibition at 10 uM; assay type: functional; conditions: read-out: GI
PC-3 = experiment: Cytotoxicity against human PC3 cells assessed as growth inhibition at 10 uM; assay type: functional; conditions: read-out: GI
U-251 = experiment: Cytotoxicity against human U251 cells assessed as growth inhibition at 10 uM; assay type: functional; conditions: read-out: GI
[2] = Cytotoxicity against human NCI-ADR-RES cells assessed as growth inhibition at 10 uM; assay type: functional; conditions: read-out: GI
SK-MEL-28 = experiment: Cytotoxicity against human SK-MEL-28 cells assessed as growth inhibition at 10 uM; assay type: functional; conditions: read-out: GI
MDA-MB-231 [3] = experiment: Cytotoxicity against human MDA-MB-231 cells assessed as growth inhibition at 10 uM; assay type: functional; conditions: read-out: GI
[4] = Cytotoxicity against human UACC257 cells assessed as growth inhibition at 10 uM; assay type: functional; conditions: UACC-257, read-out: GI
IGROV-1 = experiment: Cytotoxicity against human IGROV1 cells assessed as growth inhibition at 10 uM; assay type: functional; conditions: read-out: GI
MDA-MB-231 [5] = experiment: Antimigratory activity in human MDA-MB-231 cells after 24 hrs by wound healing assay; assay type: functional, cell-based; conditions: MDA-MB-231, 24 h
Caenorhabditis elegans [6] = experiment: Toxicity in L1 stage Caenorhabditis elegans N2 assessed as viability and reproduction at 50 uM; assay type: organism-based; conditions: in vivo
[7] = Cytotoxicity against human OVCAR5 cells assessed as growth inhibition at 10 uM; assay type: functional; conditions: OVCAR-5, read-out: GI
MCF7 [8] = experiment: Cytotoxicity against human MCF7 cells assessed as growth inhibition at 10 uM; assay type: functional; conditions: read-out: GI
MDA-MB-231 [9] = experiment: Antiproliferative activity against human MDA-MB-231 cells after 72 hrs by MTT assay; assay type: functional, cell-based; conditions: MDA-MB-231, 72 h
[10] = Cytotoxicity against human Hs578T cells assessed as growth inhibition at 10 uM; assay type: functional; conditions: Hs-578T, read-out: GI
KM12 = experiment: Cytotoxicity against human KM12 cells assessed as growth inhibition at 10 uM; assay type: functional; conditions: read-out: GI
Malme-3M = experiment: Cytotoxicity against human MALME-3M cells assessed as growth inhibition at 10 uM; assay type: functional; conditions: read-out: GI
BT-549 = experiment: Cytotoxicity against human BT549 cells assessed as growth inhibition at 10 uM; assay type: functional; conditions: read-out: GI
CCRF-CEM = experiment: Cytotoxicity against human CCRF-CEM cells assessed as growth inhibition at 10 uM; assay type: functional; conditions: read-out: GI
HCT-116 = experiment: Cytotoxicity against human HCT116 cells assessed as growth inhibition at 10 uM; assay type: functional; conditions: read-out: GI
SN12C = experiment: Cytotoxicity against human SN12C cells assessed as growth inhibition at 10 uM; assay type: functional; conditions: read-out: GI
M14 = experiment: Cytotoxicity against human M14 cells assessed as growth inhibition at 10 uM; assay type: functional; conditions: read-out: GI
HCC 2998 = experiment: Cytotoxicity against human HCC2998 cells assessed as growth inhibition at 10 uM; assay type: functional; conditions: read-out: GI
K562 = experiment: Cytotoxicity against human K562 cells assessed as growth inhibition at 10 uM; assay type: functional; conditions: read-out: GI
TK-10 = experiment: Cytotoxicity against human TK10 cells assessed as growth inhibition at 10 uM; assay type: functional; conditions: read-out: GI
HOP-62 = experiment: Cytotoxicity against human HOP62 cells assessed as growth inhibition at 10 uM; assay type: functional; conditions: read-out: GI
SK-MEL-2 = experiment: Cytotoxicity against human SK-MEL-2 cells assessed as growth inhibition at 10 uM; assay type: functional; conditions: read-out: GI
NCI-H522 = experiment: Cytotoxicity against human NCI-H522 cells assessed as growth inhibition at 10 uM; assay type: functional; conditions: read-out: GI
DU-145 = experiment: Cytotoxicity against human DU145 cells assessed as growth inhibition at 10 uM; assay type: functional; conditions: read-out: GI
NCI-H460 = experiment: Cytotoxicity against human NCI-H460 cells assessed as growth inhibition at 10 uM; assay type: functional; conditions: read-out: GI
SNB-19 = experiment: Cytotoxicity against human SNB19 cells assessed as growth inhibition at 10 uM; assay type: functional; conditions: read-out: GI
786-0 = experiment: Cytotoxicity against human 786-0 cells assessed as growth inhibition at 10 uM; assay type: functional; conditions: read-out: GI
MOLT-4 = experiment: Cytotoxicity against human MOLT4 cells assessed as growth inhibition at 10 uM; assay type: functional; conditions: read-out: GI
SF-539 = experiment: Cytotoxicity against human SF539 cells assessed as growth inhibition at 10 uM; assay type: functional; conditions: read-out: GI
SK-OV-3 = experiment: Cytotoxicity against human SKOV3 cells assessed as growth inhibition at 10 uM; assay type: functional; conditions: read-out: GI
A549 = experiment: Cytotoxicity against human A549 cells assessed as growth inhibition at 10 uM; assay type: functional; conditions: read-out: GI
T47D = experiment: Cytotoxicity against human T47D cells assessed as growth inhibition at 10 uM; assay type: functional; conditions: read-out: GI
[11] = Cytotoxicity against human UACC62 cells assessed as growth inhibition at 10 uM; assay type: functional; conditions: UACC-62, read-out: GI
[12] = Cytotoxicity against human OVCAR3 cells assessed as growth inhibition at 10 uM; assay type: functional; conditions: OVCAR-3, read-out: GI
SNB-75 = experiment: Cytotoxicity against human SNB75 cells assessed as growth inhibition at 10 uM; assay type: functional; conditions: read-out: GI
[13] = Cytotoxicity against human UO31 cells assessed as growth inhibition at 10 uM; assay type: functional; conditions: UO-31, read-out: GI
[14] = Cytotoxicity against human OVCAR8 cells assessed as growth inhibition at 10 uM; assay type: functional; conditions: OVCAR-8, read-out: GI
COLO 205 = experiment: Cytotoxicity against human COLO205 cells assessed as growth inhibition at 10 uM; assay type: functional; conditions: read-out: GI
MCF7 [15] = experiment: Antiproliferative activity against human MCF7 cells after 72 hrs by MTT assay; assay type: functional, cell-based; conditions: MCF7, 72 h
RPMI-8226 = experiment: Cytotoxicity against human RPMI8226 cells assessed as growth inhibition at 10 uM; assay type: functional; conditions: read-out: GI
NCI-H322M = experiment: Cytotoxicity against human NCI-H322M cells assessed as growth inhibition at 10 uM; assay type: functional; conditions: read-out: GI
[16] = Cytotoxicity against human EKVX cells assessed as growth inhibition at 10 uM; assay type: functional; conditions: read-out: GI
NCI-H226 = experiment: Cytotoxicity against human NCI-H226 cells assessed as growth inhibition at 10 uM; assay type: functional; conditions: read-out: GI
LOX IMVI = experiment: Cytotoxicity against human LOXIMVI cells assessed as growth inhibition at 10 uM; assay type: functional; conditions: read-out: GI
MDA-MB-468 = experiment: Cytotoxicity against human MDA-MB-468 cells assessed as growth inhibition at 10 uM; assay type: functional; conditions: read-out: GI
CAKI-1 = experiment: Cytotoxicity against human CAKI-1 cells assessed as growth inhibition at 10 uM; assay type: functional; conditions: read-out: GI
SW-620 = experiment: Cytotoxicity against human SW620 cells assessed as growth inhibition at 10 uM; assay type: functional; conditions: read-out: GI
SF-268 = experiment: Cytotoxicity against human SF268 cells assessed as growth inhibition at 10 uM; assay type: functional; conditions: read-out: GI
HL-60(TB) = experiment: Cytotoxicity against human HL-60(TB) cells assessed as growth inhibition at 10 uM; assay type: functional; conditions: read-out: GI
Caenorhabditis elegans [17] = experiment: Toxicity in L1 stage Caenorhabditis elegans N2 assessed as viability and reproduction at 10 uM; assay type: organism-based; conditions: in vivo
[18] = Cytotoxicity against human HCT15 cells assessed as growth inhibition at 10 uM; assay type: functional; conditions: HCT-15, read-out: GI
RXF 393 = experiment: Cytotoxicity against human RXF393 cells assessed as growth inhibition at 10 uM; assay type: functional; conditions: read-out: GI
MDA-MB-231 [19] = experiment: Antiinvasive activity against human MDA-MB-231 cells assessed as inhibition of cell invasion at 15 uM after 24 hrs by BME Cell invasion assay kit; assay type: functional
SR = experiment: Cytotoxicity against human SR cells assessed as growth inhibition at 10 uM; assay type: functional; conditions: read-out: GI
SK-MEL-5 = experiment: Cytotoxicity against human SK-MEL-5 cells assessed as growth inhibition at 10 uM; assay type: functional; conditions: read-out: GI

SMILES: C=C(C)[C@H]1O[C@H]2CC[C@@]3(C)[C@@](O)(CC[C@H]4[C@@H]5OC(C)(C)[C@H]6C[C@@H]7C(=C)Cc8ccc9[nH]c(c5c9c8[C@@]76O)[C@@]43C)[C@]23O[C@@H]3[C@H]1O
- inhibition of growth at 10 µM [1]: 109%
- inhibition of growth at 10 µM (HT-29): 90.6%
- inhibition of growth at 10 µM (NCI-H23): 117%
- inhibition of growth at 10 µM (MDA-MB-435): 106%
- inhibition of growth at 10 µM (ACHN): 101%
- inhibition of growth at 10 µM (PC-3): 82.9%
- inhibition of growth at 10 µM (U-251): 99%
- inhibition of growth at 10 µM [2]: 109%
- inhibition of growth at 10 µM (SK-MEL-28): 110%
- inhibition of growth at 10 µM (MDA-MB-231 [3]): 101%
- inhibition of growth at 10 µM [4]: 97.1%
- inhibition of growth at 10 µM (IGROV-1): 89.7%
- IC50 (MDA-MB-231 [5]): 20.3 µM
- Activity (Caenorhabditis elegans [6]): Non-toxic
- inhibition of growth at 10 µM [7]: 115%
- inhibition of growth at 10 µM (MCF7 [8]): 100%
- IC50 (MDA-MB-231 [9]): 25.4 µM
- inhibition of growth at 10 µM [10]: 92.2%
- inhibition of growth at 10 µM (KM12): 110%
- inhibition of growth at 10 µM (Malme-3M): 98.5%
- inhibition of growth at 10 µM (BT-549): 101%
- inhibition of growth at 10 µM (CCRF-CEM): 68%
- inhibition of growth at 10 µM (HCT-116): 92.4%
- inhibition of growth at 10 µM (SN12C): 99.2%
- inhibition of growth at 10 µM (M14): 100%
- inhibition of growth at 10 µM (HCC 2998): 104%
- inhibition of growth at 10 µM (K562): 76.9%
- inhibition of growth at 10 µM (TK-10): 107%
- inhibition of growth at 10 µM (HOP-62): 99.2%
- inhibition of growth at 10 µM (SK-MEL-2): 96.4%
- inhibition of growth at 10 µM (NCI-H522): 86%
- inhibition of growth at 10 µM (DU-145): 100%
- inhibition of growth at 10 µM (NCI-H460): 100%
- inhibition of growth at 10 µM (SNB-19): 101%
- inhibition of growth at 10 µM (786-0): 96.2%
- inhibition of growth at 10 µM (MOLT-4): 78%
- inhibition of growth at 10 µM (SF-539): 90.7%
- inhibition of growth at 10 µM (SK-OV-3): 103%
- inhibition of growth at 10 µM (A549): 92.6%
- inhibition of growth at 10 µM (T47D): 94.8%
- inhibition of growth at 10 µM [11]: 101%
- inhibition of growth at 10 µM [12]: 111%
- inhibition of growth at 10 µM (SNB-75): 84.4%
- inhibition of growth at 10 µM [13]: 72.5%
- inhibition of growth at 10 µM [14]: 96.9%
- inhibition of growth at 10 µM (COLO 205): 106%
- IC50 (MCF7 [15]): 17.5 µM
- inhibition of growth at 10 µM (RPMI-8226): 72.5%
- inhibition of growth at 10 µM (NCI-H322M): 99.4%
- inhibition of growth at 10 µM [16]: 104%
- inhibition of growth at 10 µM (NCI-H226): 98.2%
- inhibition of growth at 10 µM (LOX IMVI): 105%
- inhibition of growth at 10 µM (MDA-MB-468): 96.6%
- inhibition of growth at 10 µM (CAKI-1): 107%
- inhibition of growth at 10 µM (SW-620): 106%
- inhibition of growth at 10 µM (SF-268): 88.9%
- inhibition of growth at 10 µM (HL-60(TB)): 101%
- Activity (Caenorhabditis elegans [17]): Non-toxic
- inhibition of growth at 10 µM [18]: 98.9%
- inhibition of growth at 10 µM (RXF 393): 95%
- inhibition (MDA-MB-231 [19]): inactive
- inhibition of growth at 10 µM (SR): 91.9%
- inhibition of growth at 10 µM (SK-MEL-5): 104%

From ChEMBL document CHEMBL3217526, “Bioguided discovery and pharmacophore modeling of the mycotoxic indole diterpene alkaloids penitrems as breast cancer proliferation, migration, and invasion inhibitors” (Medchemcomm, 2013)
